Data: patent US20250062040A1, “COMPUTER-BASED SYSTEMS FOR ACQUIRING AND ANALYZING OBS[…] DATA” (priority 2021, published 2025)

Key:
[1] = core temperature by rectal temperature measurement; assay type: in vivo, mice; conditions: 1 mg/kg intraperitoneally; before injection vs just prior to thermal camera recording
Experimental: In some embodiments, a validation experiment can test whether this method may effectively detect changes in body temperature induced by drugs from thermal videos. In one such test, two groups of mice can be treated with chlorpromazine 1 mg/kg (n=13) or vehicle (n=14) intraperitoneally, and tested after 15 minutes under the thermal camera system. An average change of 0.9 degree Celsius in core temperature was observed by measuring rectal temperature of animals before injection and just prior to their thermal camera recording.

[2] = eye temperature by automated thermographic system of behavioral platform; assay type: in vivo, mice; conditions: 1 mg/kg intraperitoneally, tested after 15 minutes, 45-minute session, vs vehicle, FIG. 37
From the text: In some embodiments, with regard to image calibration, in an experimental session, actual Peltier temperatures may be logged and saved along with the thermal camera video. The logged Peltier temperatures in Celsius can be paired to the optical density (OD) levels measured at the two Peltier ROIs in each corresponding frame, so that a linear calibration curve can be used to convert the OD of measured eye ROIs to degrees Celsius.
In some embodiments, the subject body, such as a mouse, can be segmented based on the optical density distribution on each frame. The contour of the mouse can be masked by finding the largest eight-connected objects in the binarized image as shown in FIG. 36. […] The size of the eye region relative to the mask and shape properties such as ‘Eccentricity’ (ratio of the distance between the foci of the ellipse and its major axis length) and ‘Solidity’ (proportion of the pixels in the convex hull that are also in the region, computed as Area/ConvexArea) can be measured to filter out false positives, when those parameters may be outside of the range learned from manually annotated ground truth examples.
In some embodiments, with regard to feature extraction, the average OD of automatically detected eye ROIs can be converted to Celsius based on the calibration curve. […]

[3] = pEEG spectral power signature; assay type: in vivo; conditions: 2-h post-injection, normalized against baseline, different doses, FIG. 21
Experimental: In some embodiments, pEEG may be recorded 1 hour before drug administration and for 2 hours after drug administration from all recorded brain regions simultaneously. To maximize the clinical translatability of a pEEG preclinical database, the frontal cortex and parietal cortex can be selected without limitation. ECoG EEG from these electrodes may be shown to offer direct rodent-to-human translation. Additionally, the hippocampus and striatum can be targeted for indwelling local field potential (LFP) recordings to investigate pharmacological responses on brain regions known to be innervated by different neurotransmitter systems.
In some embodiments, pEEG data consumed by a behavioral platform classier or other machine learning model can be processed first to remove artifacts. […] The average standard frequency bands are shown in Table IV listing the analyzed standard frequency bands. […]
In some embodiments, a normalization against the baseline pre-drug may be convenient, although other types of normalization may be used without limitation. pEEG and accelerometer spectrums can be normalized to the corresponding mean value x_mean during the pre-dosing interval [0, 1 hour](baseline): x_norm=(x−x_mean)/x_mean. For both pEEG and accelerometer data, the post-dosing features (obtained during the 2-hour post-dosing period) can be expressed as percent change from pre-dose baseline. […]

Male SD rats = experiment: rat forced swim test, long lasting antidepressant-like effects; assay type: in vivo; conditions: vs vehicle group, p<0.05; IP 24 H prior to testing; ketamine 10 mg/kg, Enantiomer I2 30 mg/kg
Experimental: Male SD rats from Envigo (IN) were used in the study. Ketamine (10 mg/kg) was dissolved in saline and administered IP at a dose volume of 1 ml/kg 24 H prior testing. Enantiomer I2 was dissolved in PBS and administered IP at a dose volume of 1 ml/kg 24 H prior to testing. Videos were scored by an observer blinded to the treatment and frequency of immobility, climbing and swimming were measured. Data were analyzed by ANOVA followed by post hoc analysis where appropriate.

| SMILES | average change in core temperature (rectal temperature) [1] [degree Celsius] | estimated eye temperature [2] | change in pEEG power of high frequencies (gamma) [3] | frequency of immobility in the forced swim (Male SD rats) | frequency of swimming in the forced swim (Male SD rats) |
| --- | --- | --- | --- | --- | --- |
| CN(C)CCCN1c2ccccc2Sc2ccc(Cl)cc21 [chlorpromazine] | 0.9 | decrease of estimated eye temperature |  |  |  |
| CNC1(c2ccccc2Cl)CCCCC1=O (centres unmarked) [ketamine] |  |  | dose-dependent short-term increase | reduced immobility | increased swimming |
